# According to patent US6942963B1, “Methods for identifying treatments for neurotoxicity in Alzheimer's disease caused by β-amyloid peptides” (Massachusetts Institute of Technology, priority 1997, dated 2005):
# Where “and” joins values, the source holds several entries; their conditions need not be identical. Identical values can stand only once. Entries after “also recorded” stand apart in the source; their conditions may differ. Like-named read-outs stand apart in the source and are kept apart here. Non-standard residues stand in square brackets, D forms with d. No end group written: not given here.
# Legend:
# Format in all cases: cell-based, human
# [1] = tested on: hNT cells; assay: Internal calcium concentration [Ca2+]int in hNT cells (fura-2) on exposure to β-amyloid peptide or test agent alone; settings: for effect of decoy peptide by itself on cytosolic calcium concentrations: decoy peptide alone at 20 μM, filtered stocks, Tyrode's/2 mM Ca; for [Ca^2+]int after exposure to unfiltered peptide: hNT cells in Tyr2Ca, peptide at 20 μM (βAP1-42 aggregated 37C, 24 hr), controls 80 nM and 50 nM; for % increase in [Ca^2+]int: unfiltered suspension in Tyr2Ca
# [2] = tested on: βAP25-35-induced calcium influx, hNT cells; assay: βAP25-35-induced calcium influx in hNT cells: effect of channel antagonists and decoy peptides; settings: for effect on increase in internal calcium concentration due to βAP25-35: decoy peptide mixed with βAP25-35 at ratio 1:1 (20 μM+20 μM), hNT cells; for effect on βAP25-35-induced calcium influx: βAP25-35 21 μM
# [3] = tested on: βAP1-42-induced calcium influx, hNT cells; assay: βAP1-42 (Aβ1-42) aggregate-induced calcium influx in hNT cells: effect of decoy peptides and channel blockers
# [4] = tested on: hNT cells; assay: Membrane depolarization of hNT cells by aggregated Aβ1-42 (DiBAC4(3) fluorescence); settings: for % ΔF / Δ EM: aggregated Aβ1-42 20 μM
# Description: Changes in membrane potential were measured using the fluorescent potentiometric probe DiBAC4(3), (Molecular Probes, Inc., Eugene, Oreg.). This dye, bis-(1,3-dibutylbarbituric acid)trimethine oxonol, detects membrane depolarization, because it enters depolarized cells and binds to intracellular proteins or membranes. […] Hyperpolarization results in extrusion of the anionic dye and thus a decrease in fluorescence. Our measurements use two dyes, fura-2 and DiBAC4(3), since these dyes have excitation wavelengths that are far apart, but have similar emission wavelengths. DiBAC4(3) was added to fura-2AM loaded hNT cells at a concentration of 100 nM in Tyr2Ca. Rapidly alternating measurements of fura-2 (excited at 340 & 380 nm) and DiBAC4(3) (excited at 490 nm) were performed using emission at 516 nm. Both dyes were measured using the special “Fura2-Fluo3” filter set 7400 from Chroma Technology (Brattleboro, Vt.), a Zeiss Axiovert 100 inverted microscope and a photometry system (model “Delta Ram” from Photon Technology International, Inc., Monmouth Junction, N.J.).
# The bis-oxonol dye DiBAC4(3) was used as an indicator of transmembrane electrical potential changes (Langheinrich and Daut, J. Physiol. 502:397-408, 1997) when our hNT cells were treated with, for example, the β-amyloid peptide Aβ1-42. The use of this dye enabled us to monitor groups of 5-15 neurons, rather than single cells as would be the case with patch clamping methods. We expected great variability from cell to cell, as was found in our earlier patch clamp work (Sanderson et al., Brain Res. 744:7-14, 1997). The method has been used by many laboratories for the determination of membrane potentials in different cell types. Fluorescence is increased upon membrane depolarization as more dye enters the cytosol, resulting in increased binding to proteins (Braiuner et al., Biochim. Biophys. Acta 771:[…], 1984). Partitioning of bis-oxonol dye between the plasma membrane and the cytosol follows the Nernst equation (Langheinrich and Daut, 1997). Unless otherwise indicated, all measurements were carried out in Tyrode's solution containing 2 mM Ca.
# We calibrated the gross fluorescence as a function of membrane potential by treating a culture of hNT neurons, bathed in Tyrode's 2Ca buffer with the usual 3 mM K^+, containing 97 nM DiBAC4(3), with Tyrode's 2Ca buffer containing 40 mM KCl. We measured the gross fluorescence at excitation=490 nm and emission=510 nm for the depolarization by KCl and for depolarization by the Aβ1-42 peptide. We used the formula proposed by Langheinrich and Daut, 1997: % ΔF=(1−Fmin/Fmax)*100=ΔEMmV
# where Fmin=fluorescence before treatment, Fmax=fluorescence during treatment, ΔEM mV is the change in membrane potential brought about by the treatment. The calculation based on the expected depolarization by changing from 3 mM KCl to 40 MM KCl gave a value of ΔEM=3.8 mV/1% ΔF.
# Groups of hNT neuronal cells (5-17) were exposed to Aβ1-42 (20 μM) that had been incubated at 37° C. for 48 hours; 97 nM DiBAC4(3) was present. Fluorescence was measured as described above; Ex=490 nm, Em=510 nm.
# [5] = aggregated Aβ1-42 20 μM plus the named addition, [Ca^2+] 2 mM, Na^+
# [6] = hNT cells, aggregated Aβ1-42 in Tyrode's medium without calcium
compound,measurement,setting,value
^+NH3-TVIGTIGGG-CONH2 (H-[dT][dV][dI]G[dT][dI]GGG-NH2; SMILES CC[C@@H](C)[C@@H](NC(=O)[C@H](NC(=O)[C@H](N)[C@H](C)O)C(C)C)C(=O)NCC(=O)N[C@@H](C(=O)N[C@@H](C(=O)NCC(=O)NCC(=O)NCC(N)=O)[C@H](C)CC)[C@H](C)O) [DP3],effect of decoy peptide by itself on cytosolic calcium concentrations,[1]; hNT cells,raise cytosolic calcium concentrations somewhat
same,effect of unfiltered decoy peptide alone on [Ca^2+]int,"[1]; hNT cells, unfiltered DP3 at 20 μM",an increase in [Ca^2+]int
same,effect on calcium influx when decoy peptide added prior to βAP25-35 aggregation,"[2]; DP3 in Tyrode's/2 mM Ca for 1 hour, then βAP25-35 added, both 20 mM [sic]",reduced the calcium influx induced by βAP25-35; also recorded: can reduce the βAP25-35-induced Ca^2+ influx
same,effect on increase in internal calcium concentration due to βAP25-35,[2],reduced or abolished the increase in the internal calcium concentration
same,effect on ability of βAP25-35 to induce influx of calcium,[2]; unfiltered DP3 mixed with βAP25-35 at molar ratios of 1:2 or greater,marked decrease in the ability of βAP25-35 to induce influx of calcium
same,effect on calcium influx when decoy peptide added after βAP25-35 aggregation,"[2]; βAP25-35 aggregated 2 hours before DP3 addition, both 20 mM [sic]",did not reduce the induction of calcium influx
[Cl][Al]([Cl])[Cl] [AlCl3],calcium influx induced by agent by itself,"[1]; hNT neuronal cells, from external calcium sources",powerfully induces calcium influx
"O=c1[nH]c2cc([N+](=O)[O-])c([N+](=O)[O-])cc2[nH]c1=O [DNQX, 6,7-dinitroquinoxaline-2,3(1H, 4H)-dione]",effect on βAP25-35-induced calcium influx,"[2]; DNQX at 8 μM, applied together",completely prevented
D-AP5,effect on calcium influx caused by aggregated Aβ1-42,"[3]; hNT cells, aggregated 20 μM Aβ1-42, D-AP5 50 μM","largely, but not completely, abolished calcium influx; also recorded: does inhibit calcium influx"
same,inhibition of calcium influx caused by aggregated Aβ1-42,"[3]; summary statement, concentration not given",inhibited
same,% ΔF in presence of addition,[4]; [5],10.4%
same,Δ EM in presence of addition,[4]; [5],+39.5 mV
same,effect on membrane depolarization by aggregated Aβ1-42,"[4]; hNT cells, D-AP5 50 μM",did not interfere with the depolarization phenomenon; also recorded: does not block membrane depolarization
same,inhibition of membrane depolarization by aggregated Aβ1-42,"[4]; simultaneous presence, separately or together, summary statement",not inhibited
^+NH3.P.V.P.R^+.P.I.P.A.P.COO^− (H-[dP][dV][dP][dR][dP][dI][dP][dA][dP]-OH; also: modified) [DP17],effect on βAP1-42 calcium influx,"[3]; βAP1-42 25 μM coincubated with equimolar decoy peptide at 37° C. for 44 hours, hNT cells",did not reduce the effect of βAP1-42 on the calcium influx
^+NH3.T.G.I.I.A.S.G.G.G. (H-[dT]G[dI][dI][dA][dS]GGG) [DP4],effect of decoy peptide by itself on cytosolic calcium concentrations,[1]; hNT cells,no effect on cytosolic calcium concentrations
same,effect on increase in internal calcium concentration due to βAP25-35,[2],reduced or abolished the increase in the internal calcium concentration
"NC(CO)(CO)CO [TRIS^+, Tromethamine]",effect on membrane depolarization by aggregated Aβ1-42,"[4]; hNT cells, 10 mM TRIS^+",moderate decrease in membrane depolarization; also recorded: partially blocks membrane depolarization
O=C(O)CN(CCOCCOCCN(CC(=O)O)CC(=O)O)CC(=O)O [EGTA],internal calcium with chelator in external solution in addition to βAP25-35,[2]; 20 mM EGTA in addition to βAP25-35 peptide,decreased internal calcium to control levels
^+NH3.A.G.V.I.S.I.G.G.G (AGVISIGGG; not fully specified; printed as ^+NH3.A.G.V.I.S.I.G.G.G) [DP7],effect of decoy peptide by itself on cytosolic calcium concentrations,[1]; hNT cells,raise cytosolic calcium concentrations somewhat
same,effect on increase in internal calcium concentration due to βAP25-35,[2],reduced or abolished the increase in the internal calcium concentration
GSNKGAIIGLM [βAP25-35],[Ca^2+]int after exposure to unfiltered peptide,[1],approximately 200 nM
same,internal calcium concentration after restoring external calcium to 2 mM without extra peptide,[1]; hNT cells previously exposed to 50 μM βAP25-35 in Tyrode's/0 mM Ca,~200 % of control levels
same,[Ca^2+]int relative to control,"[1]; hNT cells, 21 μM βAP25-35, single experiment, 4 cells",270 % of control
same,internal calcium in external Tyrode's solution without calcium,"[1]; hNT cells, Tyrode's/0 mM Ca plus 50 μM βAP25-35, even after 15 minutes",no increase in internal calcium
same,% increase in [Ca^2+]int,"[1]; hNT cells, [βAP25-35] 10 μM",170 ± 85%
same,% increase in [Ca^2+]int,"[1]; hNT cells, [βAP25-35] 20 μM",286 ± 179%
same,% increase in [Ca^2+]int,"[1]; hNT cells, [βAP25-35] 50 μM",343 ± 245%
same,% increase in [Ca^2+]int,"[1]; hNT cells, [βAP25-35] 130 μM",623 ± 555%
same,% increase in [Ca^2+]int,"[1]; hNT cells, [βAP25-35] 172 μM",367 ± 108%
same,% increase in [Ca^2+]int,"[1]; hNT cells, [βAP25-35] 334 μM",508 ± 561%
same,% increase in [Ca^2+]int,"[1]; hNT cells, [βAP25-35] 112-114 μM",366 ± 260%
^+NH3.T.T.I.V.S.T.G.G.G (H-[dT][dT][dI][dV][dS][dT]GGG) [DP6],effect of decoy peptide by itself on cytosolic calcium concentrations,[1]; hNT cells,raise cytosolic calcium concentrations somewhat
same,effect on increase in internal calcium concentration due to βAP25-35,[2],reduced or abolished the increase in the internal calcium concentration
"NC(CCCP(=O)(O)O)C(=O)O (racemic) [DL-AP5, DL-2-amino-5-phosphonovaleric acid]",block of calcium influx into hNT neuronal cells caused by βAP25-35,[2]; concentration not stated,lack of blocking effect
same,effect on βAP25-35-induced calcium influx,[2]; DL-AP5 at 50 μM,failed to prevent
same,effect on βAP25-35-induced calcium influx,[2]; DL-AP5 at 200 μM,failed to prevent
[Cl-].[Cl-].[Mg+2] [magnesium chloride],block of calcium influx into hNT neuronal cells caused by βAP25-35,[2],blocks the influx of Ca^2+; also recorded: can be blocked
same,effect on βAP25-35-induced influx of calcium,[2],totally blocked
"βAP1-42: β-amyloid peptide, SEQ ID NO:20, purchased from Quality Controlled Biochemicals",% ΔF,"[4]; [Ca^2+] 0 mM, Na^+",51.1%
same,% ΔF,"[4]; [Ca^2+] 0.4 mM, Na^+",8.3%
same,Δ EM,"[4]; [Ca^2+] 0.4 mM, Na^+",+31.6 mV
same,% ΔF,"[4]; [Ca^2+] 2 mM, ext. cation NMDG^+",44.1%
same,% ΔF,"[4]; [Ca^2+] 2 mM, ext. cation Na^+, no addition",15.7% and 14.8%
same,% ΔF,"[4]; [Ca^2+] 2 mM, ext. cation TEA^+",44.8%
same,% ΔF,"[4]; [Ca^2+] 10 mM, Na^+",15.3%
same,Δ EM,"[4]; [Ca^2+] 10 mM, Na^+",+58.3 mV
same,membrane depolarization caused by pre-aggregated Aβ1-42,"[4]; cultured hNT neuronal cells, Tyrode's/2Ca",large membrane depolarization
same,membrane depolarization with external Na^+ replaced,[4]; external Na^+ replaced with equal concentration of TEA^+ or NMDG^+,large membrane depolarization
same,membrane depolarization without external calcium,[4]; [6],greatly increased membrane depolarization
same,calcium influx by Aβ1-42 not incubated at 37° C.,[1]; Aβ1-42 sample not incubated (protofibrils),did not produce the characteristic calcium influx
same,[Ca^2+]int after exposure to unfiltered peptide,[1],approximately 94 nM
same,cytosolic calcium level after spontaneous desensitization,"[1]; hNT cells, aggregated Aβ1-42",~200 % of control
same,new plateau calcium level relative to control values,"[1]; hNT cells, aggregated Aβ1-42, other experiments with longer time",about twofold
same,rise in cytosolic calcium without external calcium,[1]; [6],almost no rise in cytosolic calcium
same,cytosolic calcium upon addition of aggregated Aβ1-42,"[1]; hNT cells, fura-2, Tyrode's/2Ca",large increase in cytosolic calcium
same,concentration dependence of calcium influx,"[1]; hNT cells, increasing βAP1-42 concentration",strong concentration dependence
